Some test systems named below: DLD-1; SNB-78; HOP-18; XF498; SN12C; DMS-114; HOP-92; IGROV-1; DMS-273; SF-268; A549; KM-20L2; SF-295; ACHN; TK-10; MDA-MB-435; PC-3; SR; T47D; M14.
Common to all, as to assay: NCI tumour cell line growth inhibition, 48 h

The structures appear in SMILES notation.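 Test compounds were applied to cells in 96-well plates for 48 hours at 5 doses. GI50 marks 50% less growth.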 Activity calls are given as the source filed them. Rule as the data show it: active = GI50 up to about 1.1 µM and inactive = higher.

As to `Cn1c(=O)[nH]c2nncnc2c1=O`, the GI50 was 384 µM (inactive) in the assay on DLD-1; 151 µM (inactive) in the assay with SNB-78; 13.5 µM (inactive) in the assay with HOP-18; 54.2 µM (inactive) in the assay with XF498; 148 µM (inactive) in the assay on SN12C; 126 µM (inactive) in the assay with DMS-114. The GI50 is 21.3 µM (inactive) in the assay with HOP-92; 29.2 µM (inactive) in the assay on IGROV-1; 21.6 µM (inactive) in the assay on DMS-273; 133 µM (inactive) in the assay on SF-268; 80 µM (inactive) with A549; 55.2 µM (inactive) with KM-20L2. In addition, the GI50 in the assay on SF-295 was 103 µM (inactive).

`Nc1cccc2c1C1=NNC(=O)CC1C2` (stereo not drawn): the GI50 with DLD-1 is > 100 µM (inactive); with SNB-78, > 100 µM (inactive); with XF498, > 100 µM (inactive); in the assay with SN12C, > 100 µM (inactive); in the assay on DMS-114, > 100 µM (inactive); in the assay on HOP-92, 2.51 µM (inactive). The GI50 in the assay on IGROV-1, in the assay with DMS-273, with SF-268, with A549, in the assay with KM-20L2 and in the assay with SF-295 was > 100 µM (inactive) in each case.

For `c1ccc2c(c1)OCCc1cn[nH]c1-2`, the GI50 in the assay with DLD-1 was > 100 µM (inactive); in the assay on SNB-78 it was > 100 µM (inactive); in the assay with HOP-18, > 43.5 µM (inactive); with XF498, 52.2 µM (inactive); in the assay with SN12C, > 79.3 µM (inactive); in the assay with DMS-114 it was 99.1 µM (inactive). Further, the GI50 in the assay on HOP-92 was > 42.3 µM (inactive); in the assay on IGROV-1 it was > 100 µM (inactive); in the assay on DMS-273, > 100 µM (inactive); in the assay with SF-268, > 100 µM (inactive); with A549, > 100 µM (inactive); with KM-20L2 it was > 100 µM (inactive). In addition, the GI50 in the assay with SF-295 was > 100 µM (inactive).

Regarding `C[C@]12CC[C@@H]3c4ccc(OCCN5CCCC5)cc4CC[C@H]3[C@@H]1CCC2=O`, the GI50 in the assay on ACHN is 62.7 µM (inactive); with TK-10 it was 41 µM (inactive); in the assay with MDA-MB-435 it was 42.7 µM (inactive); in the assay with HOP-92, 29 µM (inactive); in the assay on IGROV-1, 12.4 µM (inactive); with PC-3, 23.7 µM (inactive). Besides, the GI50 is 29.9 µM (inactive) in the assay with SR; 23.6 µM (inactive) in the assay on A549; 36.1 µM (inactive) in the assay on T47D; 18.7 µM (inactive) with SF-295; 13.7 µM (inactive) in the assay on M14.

As for `NC(CCP(=O)(O)CCC1C=CC=CC1)C(=O)O` (stereo not drawn), the GI50 with ACHN, in the assay on TK-10, in the assay with MDA-MB-435, in the assay with SN12C, in the assay with HOP-92 and in the assay on IGROV-1 was > 100 µM (inactive) throughout. For the same compound, the GI50 in the assay on PC-3, in the assay with SF-268, in the assay with SR, in the assay with A549, with T47D and in the assay with SF-295 was > 100 µM (inactive) in each case. In addition, the GI50 in the assay with M14 was > 100 µM (inactive).

Take `COc1ccc2c(c1O)-c1cc(O)cc3c1[C@@H](C2)N(C)CC3`: the GI50 in the assay with DLD-1 was 43.2 µM (inactive); with SNB-78, 83 µM (inactive); in the assay with HOP-18 it was 67.3 µM (inactive); in the assay with XF498 it was 93.8 µM (inactive); in the assay on SN12C, 82 µM (inactive); in the assay on HOP-92 it was 19 µM (inactive). Also, the GI50 with IGROV-1 was 72.8 µM (inactive); with DMS-273, 65.8 µM (inactive); in the assay on SF-268, 75.3 µM (inactive); in the assay on A549 it was 77.1 µM (inactive); with KM-20L2 it was 2.84 µM (inactive); with SF-295, 72.3 µM (inactive).

Regarding `COc1ccc(C2SCc3nc4ccccc4n32)cc1` (stereo not drawn), the GI50 with ACHN was 5.04 µM (inactive); in the assay with TK-10 it was 23.2 µM (inactive); in the assay on SNB-78, 8.95 µM (inactive); with HOP-18 it was > 100 µM (inactive); in the assay on XF498 it was 0.124 µM (active); with SN12C, 4.41 µM (inactive). In addition, the GI50 was 2.26 µM (inactive) in the assay with DMS-114; 1.85 µM (inactive) with HOP-92; 4.66 µM (inactive) with IGROV-1; 3.43 µM (inactive) in the assay with DMS-273; 5.43 µM (inactive) in the assay with SF-268; 2.4 µM (inactive) in the assay on KM-20L2. In addition, the GI50 in the assay with SF-295 was 2.94 µM (inactive); in the assay with M14 it was 4.95 µM (inactive).

Consider `O=C(c1ccccc1)c1ccc2n[se]nc2c1`, for which the GI50 was 50 µM (inactive) with DLD-1; 7.03 µM (inactive) in the assay with ACHN; > 100 µM (inactive) in the assay on TK-10; > 100 µM (inactive) with SNB-78; < 0.01 µM (active) in the assay with HOP-18; 54.7 µM (inactive) with SN12C. The GI50 is 12.4 µM (inactive) with DMS-114; 50.6 µM (inactive) in the assay on IGROV-1; 10.3 µM (inactive) in the assay on DMS-273; > 100 µM (inactive) with SF-268; 34.8 µM (inactive) with A549; 31.4 µM (inactive) in the assay with KM-20L2. Besides, the GI50 in the assay on SF-295 was 7.4 µM (inactive); in the assay with M14 it was 19.1 µM (inactive).

In the case of `COc1cc(-c2cc(=O)c3c(O)c(CC=C(C)C)c(O)cc3o2)ccc1O`, the GI50 with ACHN was 19.1 µM (inactive); in the assay with TK-10, 23.4 µM (inactive); in the assay on MDA-MB-435, 9.1 µM (inactive); in the assay with SN12C it was > 50 µM (inactive); in the assay with HOP-92, > 50 µM (inactive); with IGROV-1 it was 24 µM (inactive). The GI50 is 16.7 µM (inactive) with PC-3; 24.6 µM (inactive) with SF-268; 14.7 µM (inactive) in the assay with SR; 26 µM (inactive) in the assay with A549; 9.77 µM (inactive) in the assay with T47D; 12 µM (inactive) in the assay on SF-295. Further, the GI50 in the assay with M14 is 12.4 µM (inactive).

For `CCOC(=O)CCC(NC(=O)OCc1ccccc1)C(=O)NC(CCC(=O)OCC)C(=O)NNC(=O)OC(C)(C)C` (stereo not drawn), the GI50 is > 100 µM (inactive) in the assay on MDA-MB-435; > 100 µM (inactive) with SN12C; > 100 µM (inactive) in the assay with HOP-92; > 100 µM (inactive) with IGROV-1; 38.8 µM (inactive) in the assay with PC-3; > 100 µM (inactive) with SR. In addition, the GI50 in the assay with T47D, in the assay with SF-295 and with M14 was > 100 µM (inactive) each time.

For `CCOC(=O)CSc1nc(N)c2c(-c3ccc(OC)c(OC)c3)c3c(nc2n1)CCCC3`, the GI50 in the assay with ACHN, in the assay on TK-10, with MDA-MB-435, in the assay with SN12C, in the assay on IGROV-1 and in the assay on PC-3 was > 100 µM (inactive) in each case. The GI50 in the assay on SF-268 was 43.4 µM (inactive); in the assay with SR it was > 100 µM (inactive); with A549, > 100 µM (inactive); with T47D, > 100 µM (inactive); in the assay with SF-295, 24.4 µM (inactive); in the assay on M14 it was > 100 µM (inactive).

For the compound `O=C(Nc1ccccc1F)c1c(O)nc2sccn2c1=O`, the GI50 in the assay with ACHN, in the assay on TK-10, in the assay on MDA-MB-435, with SN12C, in the assay with IGROV-1 and with PC-3 was > 10 µM (inactive) each time. Moreover, the GI50 in the assay with SF-268, in the assay with SR, in the assay on A549, in the assay on T47D, in the assay on SF-295 and with M14 was > 10 µM (inactive) throughout.

For the origin of these results see ChEMBL document CHEMBL1201862, “PubChem BioAssay data set” (2004).
